# Data from patent US20100029615A1, “BENZIMIDAZOLE DERIVATIVES” (priority 2006, published 2010).
# Structures can show the parent of a compound that is named as a salt.
# Target: T1, SMO (Mus musculus, UniProt P56726)
# T1 construct: endogenous in cells; host or cells: C3H10T1/2 (ATCC #CCL-226)
# Assay: Smoothened (SMO)/Sonic Hedgehog (SHh) Transient Transcriptional Activation Assay (Gli-luciferase reporter in C3H10T1/2 cells)
# Format: cell-based, murine
# Conditions: 2 μM test compound, SHh 250 ng/ml, 20 hrs, 2 µM
# How it was run: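 C3H10T1/2 cells transiently transfected with a 10× murine Gli-responsive firefly luciferase reporter plus pEGFP, serum-starved 20 h in 0.5% calf serum, then treated with compounds (2 uM–2 nM final) and 250 ng/ml recombinant human SHh for 20 h at 37 °C. Read-out: Dual-Glo luminescence.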
# T1 sequence (P56726 33-793): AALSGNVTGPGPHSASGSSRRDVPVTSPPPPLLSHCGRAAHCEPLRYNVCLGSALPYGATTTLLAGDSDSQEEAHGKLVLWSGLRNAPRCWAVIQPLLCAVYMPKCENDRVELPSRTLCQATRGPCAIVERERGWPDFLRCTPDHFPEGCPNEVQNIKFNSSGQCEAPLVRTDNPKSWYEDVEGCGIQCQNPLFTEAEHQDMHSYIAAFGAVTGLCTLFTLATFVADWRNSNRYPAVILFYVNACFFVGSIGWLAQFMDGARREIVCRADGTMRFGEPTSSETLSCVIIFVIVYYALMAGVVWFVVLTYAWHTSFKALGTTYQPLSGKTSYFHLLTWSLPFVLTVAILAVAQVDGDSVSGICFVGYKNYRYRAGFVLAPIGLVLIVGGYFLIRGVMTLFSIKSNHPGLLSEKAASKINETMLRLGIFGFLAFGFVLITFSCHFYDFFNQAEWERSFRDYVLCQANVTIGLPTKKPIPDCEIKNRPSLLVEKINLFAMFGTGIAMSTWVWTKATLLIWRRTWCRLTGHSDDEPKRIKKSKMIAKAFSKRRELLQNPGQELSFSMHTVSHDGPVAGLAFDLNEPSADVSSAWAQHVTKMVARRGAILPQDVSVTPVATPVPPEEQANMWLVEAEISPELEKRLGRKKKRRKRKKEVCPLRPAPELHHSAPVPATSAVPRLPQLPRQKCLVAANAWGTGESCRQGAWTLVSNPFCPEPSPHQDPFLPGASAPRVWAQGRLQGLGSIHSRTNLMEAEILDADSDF
row,SMO CELL % INHIBITION @ 2 μM,Structure (SMILES)
1,107.2%,"COc1cc(OC)cc(C(=O)N[C@@H]2CCC[C@H](c3nc4ccc(C(F)(F)F)cc4[nH]3)C2)c1 [Example 171, 3,5-dimethoxy-N-{(1R,3S)-3-[6-(trifluoromethyl)-1H-benzimidazol-2-yl]cyclohexyl} benzamide (+)-tartrate]"

# Same assay, conditions: C3H 10T1/2, 2 μM test compound, SHh 250 ng/ml, 20 hrs, read-out: SMO CELL % INHIBITION @ 2 μM
row,inhibition at 2 µM,Structure (SMILES)
1,68%,"O=C(NC1CCCC(c2nc3ccccc3[nH]2)C1)c1ccc(O)c(Cl)c1 (centres unmarked) [Example 147, N-[3-(1H-benzimidazol-2-yl)cyclohexyl]-3-chloro-4-hydroxybenz-amide triflouroacetate]"
2,50%,"O=C(CCc1nc2ccccc2[nH]1)NC1CCCC(c2nc3ccccc3[nH]2)C1 (centres unmarked) [Example 148, 3-(1H-benzimidazol-2-yl)-N-[3-(1H-benzimidazol-2-yl)cyclohexyl]-propanamide triflouroacetate]"
3,103%,"O=C(N[C@@H]1CCC[C@H](c2nc3cc(Br)ccc3[nH]2)C1)c1ccc2c(c1)OCCO2 [Example 149, N-[(1R,3S)-3-(5-bromo-1H-benzimidazol-2-yl)cyclohexyl]-2,3-dihydro-1,4-benzodioxine-6-carboxamide HCl]"
4,45%,"O=C(N[C@H]1CCC[C@@H](c2nc3cc(Br)ccc3[nH]2)C1)c1ccc2c(c1)OCCO2 [Example 150, N-[(1S,3R)-3-(5-bromo-1H-benzimidazol-2-yl)cyclohexyl]-2,3-dihydro-1,4-benzodioxine-6-carboxamide HCl]"
5,106%,"O=C(N[C@@H]1CCC[C@H](c2nc3cc(C(F)(F)F)ccc3[nH]2)C1)c1ccc2c(c1)OCCO2 [Example 151, N-{(1R,3S)-3-[5-(trifluoromethyl)-1H-benzimidazol-2-yl]cyclohexyl}-2,3-dihydro-1,4-benzodioxine-6-carboxamide HCl]"
6,80%,"O=C(N[C@H]1CCC[C@@H](c2nc3cc(C(F)(F)F)ccc3[nH]2)C1)c1ccc2c(c1)OCCO2 [Example 152, N-{(1S,3R)-3-[5-(trifluoromethyl)-1H-benzimidazol-2-yl]cyclohexyl}-2,3-dihydro-1,4-benzodioxine-6-carboxamide HCl]"
7,46%,"O=C(NC1CCCC(c2nc3ccccc3[nH]2)C1)c1cc(-c2ccccn2)n[nH]1 (centres unmarked) [Example 153, N-[3-(1H-benzimidazol-2-yl)cyclohexyl]-3-pyridin-2-yl-1H-pyrazole-5-carboxamide triflouroacetate]"
8,57%,"O=C(Cn1ccc2ccccc2c1=O)NC1CCCC(c2nc3ccccc3[nH]2)C1 (centres unmarked) [Example 154, N-[3-(1H-benzimidazol-2-yl)cyclohexyl]-2-(1-oxoisoquinolin-2(1H)-yl)acetamide triflouroacetate]"
9,64%,"CCc1n[nH]c(C(=O)NC2CCCC(c3nc4ccccc4[nH]3)C2)c1C (centres unmarked) [Example 155, N-[3-(1H-benzimidazol-2-yl)cyclohexyl]-3-ethyl-4-methyl-1H-pyrazol-5-carboxamide triflouroacetate]"
10,53%,"Cc1ccn2cc(CCC(=O)NC3CCCC(c4nc5ccccc5[nH]4)C3)nc2c1 (centres unmarked) [Example 156, N-[3-(1H-benzimidazol-2-yl)cyclohexyl]-3-(7-methylimidazo [1,2-a]pyridin-2-yl)propanamide triflouroacetate]"
11,52%,"CC(=O)c1ccc(OCC(=O)NC2CCCC(c3nc4ccccc4[nH]3)C2)cc1 (centres unmarked) [Example 157, 2-(4-acetylphenoxy)-N-[3-(1H-benzimidazol-2-yl)cyclohexyl] acetamide triflouroacetate]"
12,73%,"O=C(NC1CCCC(c2nc3ccccc3[nH]2)C1)c1ccc2[nH]c(=O)[nH]c(=O)c2c1 (centres unmarked) [Example 158, N-[3-(1H-benzimidazol-2-yl)cyclohexyl]-2,4-dioxo-1,2,3,4-tetrahydroquin-azoline-6-carboxamide triflouroacetate]"
13,78%,"Cn1ccnc1-c1ccc(C(=O)NC2CCCC(c3nc4ccccc4[nH]3)C2)cc1 (centres unmarked) [Example 159, N-[3-(1H-benzimidazol-2-yl)cyclohexyl]-4-(1-methyl-1H-imidazol-2-yl)benzamide triflouroacetate]"
14,72%,"O=C(NC1CCCC(c2nc3ccccc3[nH]2)C1)c1ccc(-c2cnco2)cc1 (centres unmarked) [Example 160, N-[3-(1H-benzimidazol-2-yl)cyclohexyl]-4-(1,3-oxazol-5-yl)benzamide triflouroacetate]"
15,54%,"O=C(NC1CCCC(c2nc3ccccc3[nH]2)C1)c1ccc2snnc2c1 (centres unmarked) [Example 161, N-[3-(1H-benzimidazol-2-yl)cyclohexyl]-1,2,3-benzothiadiazole-5-carboxamide triflouroacetate]"
16,71%,"CN(C)S(=O)(=O)CC(=O)NC1CCCC(c2nc3ccccc3[nH]2)C1 (centres unmarked) [Example 162, N-[3-(1H-benzimidazol-2-yl)cyclohexyl]-2-{(dimethylamino)-sulfonyl]-acetamide triflouroacetate]"
17,95%,"O=C(NC1CCCC(c2nc3ccccc3[nH]2)C1)c1ccc(-n2cnnn2)cc1 (centres unmarked) [Example 163, N-[3-(1H-benzimidazol-2-yl)cyclohexyl]-4-(1H-tetrazol-1-yl)benzamide triflouroacetate]"

row,inhibition at 2 µM,Structure (SMILES)
1,106%,"Cn1ccnc1C(=O)NC1CCCC(c2nc3ccccc3[nH]2)C1 (centres unmarked) [Example 164, N-[3-(1H-benzimidazol-2-yl)cyclohexyl]-1-methyl-1H-imidazole-2-carboxamide triflouroacetate]"
2,63%,"COc1cc(C(=O)N[C@@H]2CCC[C@H](c3nc4ccccc4[nH]3)C2)ccn1 [Example 165, N-[(1R,3S)-3-(1H-benzimidazol-2-yl)cyclohexyl]-2-methoxyisonico-tinamide HCl]"
3,109%,"COc1cc(OC)cc(C(=O)N[C@@H]2CCC[C@H](c3nc4ccccc4[nH]3)C2)c1 [Example 166, N-[(1R,3S)-3-(1H-benzimidazol-2-yl)cyclohexyl]-3,5-dimethoxybenz-amide HCl]"
4,101%,"COc1cc(OC)cc(C(=O)N[C@@H]2CCC[C@H](c3nc4ccccc4n3C)C2)c1 [Example 167, 3,5-dimethoxy-N[(1R,3S)-3-(1-methyl-1H-benzimidazol-2-yl)cyclohexyl] benzamide HCl]"
5,106%,"Cc1ccc2nc([C@H]3CCC[C@@H](NC(=O)c4ccc5c(c4)OCCO5)C3)[nH]c2c1 [Example 168, N-[(1R,3S)-3-(6-methyl-1H-benzimidazol-2-yl)cyclohexyl]-2,3-dihydro-1,4-benzodioxine-6-carboxamide HCl]"
6,93%,"O=C(N[C@@H]1CCC[C@H](c2nc3ccccc3[nH]2)C1)c1cnc(O)c(Cl)c1 [Example 169, N-[(1R,3S)-3-(1H-benzimidazol-2-yl)cyclohexyl]-5-chloro-6-hydroxynicotin-amide HCl]"
7,110%,"COc1cc(OC)cc(C(=O)N[C@@H]2CCC[C@H](c3nc4ccc(C(F)(F)F)cc4[nH]3)C2)c1 [Example 170, 3,5-dimethoxy-N-{(1R,3S)-3-[6-(trifluoromethyl)-1H-benzimidazol-2-yl]cyclohexyl} benzamide HCl]"
8,90%,"N#Cc1ccc2nc([C@H]3CCC[C@@H](NC(=O)c4ccc5c(c4)OCCO5)C3)[nH]c2c1 [Example 172, N-[(1R,3S)-3-(6-cyano-1H-benzimidazol-2-yl)cyclohexyl]-2,3-dihydro-1,4-benzodioxine-6-carboxamide HCl]"
9,97%,"O=C1COc2ccc(C(=O)N[C@@H]3CCC[C@H](c4nc5ccccc5[nH]4)C3)cc2N1 [Example 173, N-[(1R,3S)-3-(1H-benzimidazol-2-yl)cyclohexyl]-3-oxo-3,4-dihydro-2H-1,4-benzoxazine-6-carboxamide HCl]"
10,64%,"Cn1cncc1C(=O)N[C@@H]1CCC[C@H](c2nc3ccccc3[nH]2)C1 [Example 174, N-[(1R,3S)-3-(1H-benzimidazol-2-yl)cyclohexyl]-1-methyl-1H-imidazole-5-carboxamide HCl]"
11,81%,"Cn1c(C(=O)N[C@@H]2CCC[C@H](c3nc4ccccc4[nH]3)C2)nc2ccccc21 [Example 175, N-[(1R,3S)-3-(1H-benzimidazol-2-yl)cyclohexyl]-1-methyl-1H-benzimidazole-2-carboxamide HCl]"
12,57%,"O=C(N[C@@H]1CCC[C@H](c2nc3ccccc3[nH]2)C1)c1nc2ccccc2[nH]1 [Example 176, N-[(1R,3S)-3-(1H-benzimidazol-2-yl)cyclohexyl]-1H-benzimidazole-2-carboxamide HCl]"
13,73%,"Cc1cc(C(=O)N[C@@H]2CCC[C@H](c3nc4ccccc4[nH]3)C2)n(C)n1 [Example 177, N-[(1R,3S)-3-(1H-benzimidazol-2-yl)cyclohexyl]-1,3-dimethyl-1H-pyrazole-5-carboxamide HCl]"
14,110%,"O=C(N[C@@H]1CCC[C@H](c2nc3ccc(Cl)cc3[nH]2)C1)c1ccc2c(c1)OCCO2 [Example 178, N-[(1R,3S)-3-(6-chloro-1H-benzimidazol-2-yl)cyclohexyl]-2,3-dihydro-1,4-benzodioxine-6-carboxamide HCl]"
15,106%,"O=C(N[C@H]1CCC[C@@H](c2nc3ccc(Cl)cc3[nH]2)C1)c1ccc2c(c1)OCCO2 [Example 179, N-[(1S,3R)-3-(6-chloro-1H-benzimidazol-2-yl)cyclohexyl]-2,3-dihydro-1,4-benzodioxine-6-carboxamide HCl]"
16,107%,"COc1ccc2nc([C@H]3CCC[C@@H](NC(=O)c4ccc5c(c4)OCCO5)C3)[nH]c2c1 [Example 180, N-[(1R,3S)-3-(6-methoxy-1H-benzimidazol-2-yl)cyclohexyl]-2,3-dihydro-1,4-benzodioxine-6-carboxamide HCl]"
17,104%,"O=C(N[C@@H]1CCC[C@H](c2nc3ccccc3[nH]2)C1)c1cc2cc(Cl)ccc2o1 [Example 181, N-[(1R,3S)-3-(1H-benzimidazol-2-yl)cyclohexyl]-5-chloro-1-benzofuran-2-carboxamide triflouroacetate]"
